Laboratory results taken from US10988477B2 (Merck Patent GmbH, priority 2018, dated 2021).

Experiments:
[1] = system: primary human pan T-cells; test: Human IL-2 assay for GCN2 inhibition (IL-2 secretion by T cells in low amino acid condition); type: cell-based; conditions: T-cell; IL-2 secretion from human T cells, anti-CD3/CD28 stimulation, 96 hours; read-out: IL2/T-cell EC50
Text: Tumor microenvironment is profoundly immuno-suppressive. This may be attributed to the depletion of amino acids (like arginine and tryptophan) which triggers the activation of GCN2 in immune cells, including T cell and myeloid cells. In T cells, activation of GCN2 leads to reduce effector functions of CD8 T cells and induction and/or maintenance of immuno-suppressive T-regs. Inhibition of that immuno-suppressive response by GCN2 inhibitors enables an anti-cancer immune response by activating effector T-cells. Herein we describe an in-vitro system we established using human T-cells stimulated in low amino acid condition in order to engage the GCN2 biology. The method described involves the modulation of IL-2 levels secreted by human T cells in responses to the GCN2 inhibitors disclosed herein.
Amino acid-free RPMI was reconstituted with all but one of the amino acids found in standard RMPI (e.g. Arginine, Tryptophan), 10% charcoal-stripped fetal bovine serum, 100 Units/mL penicillin and 0.1 mg/mL streptomycin. Primary human pan T-cells were isolated using Pan T Cell Isolation Kit, human (MACS Miltenyi biotech Cat #Order no. 130-096-535) from apheresis cones and 5×104 pan T-cells per well. The purified T cells are seeded in Nunc™ 96-Well Polystyrene Round Bottom Microwell Plates (the cells are rested in No TRP media in a 15 ml falcon tube in the incubator for 30-45 minutes while titrations for tryptophan and the GCN2 inhibitor compound are made) A plate matrix was developed to titrate both a GCN2 inhibitor and the amino acid of interest ranging from “No Amino Acid” condition, up to the concentration found in the regular RPMI media (20 μM for TRP and 950 μM for Arginine). The cells were incubated for 30 min at 37° C. with the GCN2 inhibitor and then stimulated with 5×104 anti-CD3/CD28 Dynabeads® per well. After 96 hours of incubation the IL-2 level in the supernatant were measured using ELISA (R&D systems Cat #DY202 (Human IL-2 DuoSet ELISA). Data were plotted in GraphPad Prism software and EC50 is calculated.

GCN2 kinase = GCN2 kinase (Homo sapiens, UniProt Q9P2K8); test: GCN2 enzyme inhibition assay (Transcreener ADP2 fluorescence polarization); type: biochemical; conditions: 280 μM ATP; for IC50: 4 nM GCN2 kinase; for Ki: Enzyme activity for compounds of Formula IV, Ki(app), 25° C.
Procedure, shortened: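 ADP formation read by Transcreener FP after a 1 h, 25 °C kinase reaction containing 280 μM ATP, 200 μM (RS)7 substrate and 4 nM GCN2, pH 7.5 Tris buffer. Compounds (0–8 μM final) were added 10 min before ATP. Percent inhibition gave IC50 and apparent Ki via tight-binding fit.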

[2] = target: intracellular GCN2 (phosphorylation of the GCN2 substrate eIF2α) (Homo sapiens, UniProt Q9P2K8); test: GCN2 cellular inhibition assay (AlphaScreen SureFire P-eIF2α Ser51, borrelidin-treated U2OS cells); type: cell-based; conditions: compounds of Formula IV; biomarker assay, phosphorylated eIF2α Ser51 in borrelidin-treated U2OS cells
Procedure, shortened: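 U2OS cells, adhered overnight, received compounds in 4-fold serial dilutions from 40 μM final, then 10 μM borrelidin for 1 h at 37 °C. Lysates were read by AlphaScreen for phospho-eIF2α Ser51; percent inhibition was set against borrelidin-only wells.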

Chain of intracellular GCN2 (phosphorylation of the GCN2 substrate eIF2α) (Q9P2K8 whole entry): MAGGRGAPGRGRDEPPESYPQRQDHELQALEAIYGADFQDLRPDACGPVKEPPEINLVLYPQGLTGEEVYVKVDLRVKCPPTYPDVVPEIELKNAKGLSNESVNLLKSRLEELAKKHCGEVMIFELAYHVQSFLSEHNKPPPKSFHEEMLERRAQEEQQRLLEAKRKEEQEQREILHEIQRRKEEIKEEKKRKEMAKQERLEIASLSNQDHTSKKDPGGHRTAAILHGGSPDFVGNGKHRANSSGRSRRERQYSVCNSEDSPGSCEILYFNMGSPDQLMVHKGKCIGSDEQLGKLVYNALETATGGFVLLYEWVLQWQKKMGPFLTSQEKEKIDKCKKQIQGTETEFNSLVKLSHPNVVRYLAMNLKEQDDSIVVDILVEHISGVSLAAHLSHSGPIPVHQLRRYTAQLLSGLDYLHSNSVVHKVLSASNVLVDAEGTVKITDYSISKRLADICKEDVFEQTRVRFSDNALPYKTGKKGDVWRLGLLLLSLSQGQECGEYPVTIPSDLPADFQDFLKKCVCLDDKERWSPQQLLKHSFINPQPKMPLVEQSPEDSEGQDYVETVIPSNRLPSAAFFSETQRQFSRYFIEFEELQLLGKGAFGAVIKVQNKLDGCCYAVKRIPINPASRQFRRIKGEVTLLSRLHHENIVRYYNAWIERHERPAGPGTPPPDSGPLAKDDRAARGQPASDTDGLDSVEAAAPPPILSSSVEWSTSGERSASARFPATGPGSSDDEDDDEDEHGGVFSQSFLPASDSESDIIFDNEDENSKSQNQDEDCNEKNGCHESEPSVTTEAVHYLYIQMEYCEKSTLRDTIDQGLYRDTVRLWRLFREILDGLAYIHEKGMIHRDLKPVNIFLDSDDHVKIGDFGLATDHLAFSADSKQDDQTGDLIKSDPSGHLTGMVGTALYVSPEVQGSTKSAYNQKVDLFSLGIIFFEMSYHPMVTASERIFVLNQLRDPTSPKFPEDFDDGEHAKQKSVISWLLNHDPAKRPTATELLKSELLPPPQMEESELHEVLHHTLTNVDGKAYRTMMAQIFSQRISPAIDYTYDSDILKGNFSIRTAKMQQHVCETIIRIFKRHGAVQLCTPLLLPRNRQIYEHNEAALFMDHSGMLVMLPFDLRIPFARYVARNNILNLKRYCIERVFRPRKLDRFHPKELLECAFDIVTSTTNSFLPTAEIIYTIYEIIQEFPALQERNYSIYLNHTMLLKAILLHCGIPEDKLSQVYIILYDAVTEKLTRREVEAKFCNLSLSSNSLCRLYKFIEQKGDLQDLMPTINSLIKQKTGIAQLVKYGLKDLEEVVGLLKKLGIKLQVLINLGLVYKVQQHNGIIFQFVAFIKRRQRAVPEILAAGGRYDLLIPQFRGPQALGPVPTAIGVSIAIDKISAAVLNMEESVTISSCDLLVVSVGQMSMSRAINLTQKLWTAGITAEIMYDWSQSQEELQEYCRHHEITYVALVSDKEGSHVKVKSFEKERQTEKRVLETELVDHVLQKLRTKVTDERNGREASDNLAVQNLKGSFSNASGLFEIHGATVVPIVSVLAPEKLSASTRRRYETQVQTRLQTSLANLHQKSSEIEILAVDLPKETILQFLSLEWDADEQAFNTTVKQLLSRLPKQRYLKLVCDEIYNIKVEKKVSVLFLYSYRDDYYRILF
Chain of GCN2 kinase (Q9P2K8 whole entry): as above

SMILES | EC50 [1] | IC50 [2] | IC50 (GCN2 kinase; compounds of Formula IV) | other results
C[C@H]1CC(F)(F)C(CNS(C)(=O)=O)CN1c1cc(-c2cnc3ccc(C(F)F)nn23)ncn1 (stereo in doubt) [II-778, N-(((3R,6S)-1-(6-(6-(difluoromethyl)imidazo[1,2-b]pyridazin-3-yl)pyrimidin-4-yl)-4,4-difluoro-6-methylpiperidin-3-yl)methyl)methanesulfonamide] | > 0.5 µM | – | – | –
CS(=O)(=O)NC[C@@H]1CN(c2cc(-c3cnc4ccc(C(F)F)nn34)ncn2)C[C@H](C(F)(F)F)O1 [II-771, N-(((2S,6R)-4-(6-(6-(difluoromethyl)imidazo[1,2-b]pyridazin-3-yl)pyrimidin-4-yl)-6-(trifluoromethyl)morpholin-2-yl)methyl)methanesulfonamide] | 0.1 to 0.5 µM | – | – | IC50 (GCN2 kinase; compounds of Formula II): 0.01 to 1 µM
C[C@H]1CN(c2cc(-c3cnc4ccc(C(F)F)nn34)ncn2)C[C@@H](CNS(C)(=O)=O)C1(F)F [II-773, N-(((3S,5S)-1-(6-(6-(difluoromethyl)imidazo[1,2-b]pyridazin-3-yl)pyrimidin-4-yl)-4,4-difluoro-5-methylpiperidin-3-yl)methyl)methanesulfonamide] | < 0.1 µM | – | – | –
CS(=O)(=O)NC[C@H]1C[C@@H](C2CC2)CN(c2cc(-c3cnc4ccc(C(F)F)nn34)ncn2)C1 [II-774, N-(((3S,5S)-5-cyclopropyl-1-(6-(6-(difluoromethyl)imidazo[12-b]pyridazin-3-yl)pyrimidin-4-yl)piperidin-3-yl)methyl)methanesulfonamide] | < 0.1 µM | – | – | –
CS(=O)(=O)NCC1CCCN(c2cc(-c3cnc4ccc(C(F)F)nn34)cc(OC3CNC3)n2)C1 (stereo not drawn) [II-779, N-((1-(6-(azetidin-3-yloxy)-4-(6-(difluoromethyl)imidazo[1,2-b]pyridazin-3-yl)pyridin-2-yl)piperidin-3-yl)methyl)methanesulfonamide] | > 0.5 µM | – | – | –
O=C(N[C@H]1CCCN(c2ccnc(-c3cnc4cnc(C(F)(F)F)cn34)n2)C1)c1cn[nH]c1 [IV-733] | – | > 5 µM | – | Ki (GCN2 kinase): > 1 µM
C[C@@H]1C[C@H](c2c[nH]nc2F)CN(c2nccc(-c3cnc4cnc(C(F)(F)F)cn34)n2)C1 [IV-757, 3-(2-((3R,5R)-3-(3-fluoro-1H-pyrazol-4-yl)-5-methylpiperidin-1-yl)pyrimidin-4-yl)-6-(trifluoromethyl)imidazo[1,2-a]pyrazine] | – | < 0.5 µM | 0.01 to 1 µM | –
Cc1n[nH]cc1[C@H]1C[C@@H](C)CN(c2nccc(-c3cnc4cnc(C(F)(F)F)cn34)n2)C1 [IV-758, 3-(2-((3R,5R)-3-methyl-5-(3-methyl-1H-pyrazol-4-yl)piperidin-1-yl)pyrimidin-4-yl)-6-(trifluoromethyl)imidazo[1,2-a]pyrazine] | – | < 0.5 µM | 0.01 to 1 µM | –
C[C@@H]1C[C@@H](c2c[nH]nc2F)CN(c2ccnc(-c3cnc4cnc(C(F)(F)F)cn34)n2)C1 [IV-765] | – | < 0.5 µM | 0.01 to 1 µM | –
C[C@@H]1C[C@@H](c2cn[nH]c2)CN(c2ccnc(-c3cnc4cnc(C(F)(F)F)cn34)n2)C1 [IV-769, 3-(4-((3R,5S)-3-methyl-5-(1H-pyrazol-4-yl)piperidin-1-yl)pyrimidin-2-yl)-6-(trifluoromethyl)imidazo[1,2-a]pyrazine] | – | < 0.5 µM | 0.01 to 1 µM | –
C[C@@H]1C[C@H](N=S(C)(C)=O)CN(c2ccnc(-c3cnc4cnc(C(F)F)cn34)n2)C1 [IV-772, (((3S,5R)-1-(2-(6-(difluoromethyl)imidazo[1,2-a]pyrazin-3-yl)pyrimidin-4-yl)-5-methylpiperidin-3-yl)imino)dimethyl-16-sulfanone] | – | 0.5 to 5 µM | 0.01 to 1 µM | –
Cc1n[nH]cc1[C@H]1C[C@H](O)CN(c2ccnc(-c3cnc4cnc(C(F)(F)F)cn34)n2)C1 [IV-774, (3S,5R)-5-(3-methyl-1H-pyrazol-4-yl)-1-(2-(6-(trifluoromethyl)imidazo[1,2-a]pyrazin-3-yl)pyrimidin-4-yl)piperidin-3-ol] | – | > 5 µM | 0.01 to 1 µM | –

Second part, led by results:

EC50 [1] | IC50 [2] | IC50 (GCN2 kinase; compounds of Formula IV) | SMILES | other results
0.1 to 0.5 µM | – | – | C[C@H]1[C@@H](CNS(C)(=O)=O)CCCN1c1cc(-c2cnc3ccc(C(F)F)nn23)ncn1 (stereo in doubt) [II-755, N-(((2S,3R)-1-(6-(6-(difluoromethyl)imidazo[1,2-b]pyridazin-3-yl)pyrimidin-4-yl)-2-methylpiperidin-3-yl)methyl)methanesulfonamide] | IC50 (GCN2 kinase; compounds of Formula II): > 1 µM
0.1 to 0.5 µM | – | – | C[C@H]1C[C@@H](NS(C)(=O)=O)CN(c2cc(-c3cnc4ccc(C(F)F)nn34)ncn2)C1 (stereo in doubt) [II-777, N-((3R,5S)-1-(6-(6-(difluoromethyl)imidazo[1,2-b]pyridazin-3-yl)pyrimidin-4-yl)-5-methylpiperidin-3-yl)methanesulfonamide] | –
0.1 to 0.5 µM | – | – | CS(=O)(=O)NCC1CN(c2cc(-c3cnc4ccc(C(F)F)nn34)ncn2)CC2(CC2)C1(F)F (stereo not drawn) [II-775, N-((5-(6-(6-(difluoromethyl)imidazo[1,2-b]pyridazin-3-yl)pyrimidin-4-yl)-8,8-difluoro-5-azaspiro[2.5]octan-7-yl)methyl)methanesulfonamide] | –
0.1 to 0.5 µM | – | – | CC1(C)CN(c2cc(-c3cnc4ccc(C(F)F)nn34)ncn2)C[C@@H](CNS(C)(=O)=O)O1 [II-776, (S)—N-((4-(6-(6-(difluoromethyl)imidazo[1,2-b]pyridazin-3-yl)pyrimidin-4-yl)-6,6-dimethylmorpholin-2-yl)methyl)methanesulfonamide] | –
– | > 5 µM | – | FC(F)(F)c1cn2c(-c3nccc(N4CCOC(c5ccncc5)C4)n3)cnc2cn1 (stereo not drawn) [IV-724] | Ki (GCN2 kinase): > 1 µM
– | > 5 µM | – | N#Cc1cccc(C(=O)N[C@H]2CCCN(c3ccnc(-c4cnc5cnc(C(F)(F)F)cn45)n3)C2)c1 [IV-741] | Ki (GCN2 kinase): > 1 µM
– | > 5 µM | – | N#Cc1ccc(C(=O)N[C@H]2CCCN(c3ccnc(-c4cnc5cnc(C(F)(F)F)cn45)n3)C2)cc1 [IV-743] | Ki (GCN2 kinase): > 1 µM
– | < 0.5 µM | 0.01 to 1 µM | C[C@H]1C[C@H](c2c[nH]nc2F)CN(c2nccc(-c3cnc4cnc(C(F)(F)F)cn34)n2)C1 [IV-754, 3-(2-((3R,5S)-3-(3-fluoro-1H-pyrazol-4-yl)-5-methylpiperidin-1-yl)pyrimidin-4-yl)-6-(trifluoromethyl)imidazo[1,2-a]pyrazine] | –
– | < 0.5 µM | 0.01 to 1 µM | C[C@H]1C[C@H](c2c[nH]nc2F)CN(c2ccnc(-c3cnc4cnc(C(F)(F)F)cn34)n2)C1 [IV-764, 3-(4-((3R,5S)-3-(3-fluoro-1H-pyrazol-4-yl)-5-methylpiperidin-1-yl)pyrimidin-2-yl)-6-(trifluoromethyl)imidazo[1,2-a]pyrazine] | –
– | < 0.5 µM | 0.01 to 1 µM | C[C@@H]1C[C@H](c2c[nH]nc2F)CN(c2ccnc(-c3cnc4cnc(C(F)(F)F)cn34)n2)C1 [IV-766] | –
– | < 0.5 µM | 0.01 to 1 µM | C[C@@H]1C[C@H](c2cn[nH]c2)CN(c2ccnc(-c3cnc4cnc(C(F)(F)F)cn34)n2)C1 [IV-770, 3-(4-((3R,5R)-3-methyl-5-(1H-pyrazol-4-yl)piperidin-1-yl)pyrimidin-2-yl)-6-(trifluoromethyl)imidazo[1,2-a]pyrazine] | –
– | < 0.5 µM | < 0.01 µM | C[C@H]1C[C@@H](c2cn[nH]c2)CN(c2ccnc(-c3cnc4cnc(C(F)(F)F)cn34)n2)C1 [IV-771, 3-(4-((3S,5S)-3-methyl-5-(1H-pyrazol-4-yl)piperidin-1-yl)pyrimidin-2-yl)-6-(trifluoromethyl)imidazo[1,2-a]pyrazine] | –
– | > 5 µM | 0.01 to 1 µM | Cc1n[nH]cc1[C@@H]1C[C@@H](O)CN(c2ccnc(-c3cnc4cnc(C(F)(F)F)cn34)n2)C1 [IV-775, (3R,5S)-5-(3-methyl-1H-pyrazol-4-yl)-1-(2-(6-(trifluoromethyl)imidazo[1,2-a]pyrazin-3-yl)pyrimidin-4-yl)piperidin-3-ol] | –
– | 0.5 to 5 µM | 0.01 to 1 µM | Cc1n[nH]cc1[C@@H]1C[C@H](O)CN(c2ccnc(-c3cnc4cnc(C(F)(F)F)cn34)n2)C1 [IV-777, (3S,5S)-5-(3-methyl-1H-pyrazol-4-yl)-1-(2-(6-(trifluoromethyl)imidazo[1,2-a]pyrazin-3-yl)pyrimidin-4-yl)piperidin-3-ol] | –
